Results from patent US12624044B2, “SMARCA degraders and uses thereof” (Kymera Therapeutics, Inc., priority 2019, dated 2026).

Columns and labels:
SMARCA2 = SMARCA2 (Homo sapiens, UniProt P51531); test: MSD SMARCA2 degradation in NCI-H1299 cell line (24 h); assay type: cell-based; set-up: HC: NCI-H1299 cells treated with DMSO; host or cells: NCI-H1299; conditions: for Dmax: NCI-H1299, NCI-H1299 cells; for DC50: NCI-H1299 cells, read-out: SMARCA2 MSD H1299 degradation 24 h: External Abs-DC50
Procedure, shortened: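 SMARCA2 measured by MSD electrochemiluminescence (primary 0.3 ug/ml, secondary 1 ug/ml) on lysates from NCI-H1299 cells exposed to compounds for 24 h across nine 3-fold dilutions. Signal scaled from A2780 cells (no SMARCA2) to DMSO-treated H1299 controls, and maximal degradation after 24 h reported in letter categories.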

SMARCA4 = target: T1, SMARCA4 (Homo sapiens, UniProt P51532); test: SMARCA4 Western blot MV4-11 degradation; assay type: cell-based; conditions: 24 h; for Dmax: MV4-11, MV4-11 cells, read-out: SMARCA4 WB MV411 degradation 24 h: Average Dmax %; for DC50: MV4-11 cells, read-out: SMARCA4 WB MV411 degradation 24 h: Average external-Abs DC50
T1 construct: SMARCA2 and SMARCA4 protein degradation in MV4-11 cells; endogenous in cells; host or cells: MV4-11
T1 sequence (P51532 whole entry): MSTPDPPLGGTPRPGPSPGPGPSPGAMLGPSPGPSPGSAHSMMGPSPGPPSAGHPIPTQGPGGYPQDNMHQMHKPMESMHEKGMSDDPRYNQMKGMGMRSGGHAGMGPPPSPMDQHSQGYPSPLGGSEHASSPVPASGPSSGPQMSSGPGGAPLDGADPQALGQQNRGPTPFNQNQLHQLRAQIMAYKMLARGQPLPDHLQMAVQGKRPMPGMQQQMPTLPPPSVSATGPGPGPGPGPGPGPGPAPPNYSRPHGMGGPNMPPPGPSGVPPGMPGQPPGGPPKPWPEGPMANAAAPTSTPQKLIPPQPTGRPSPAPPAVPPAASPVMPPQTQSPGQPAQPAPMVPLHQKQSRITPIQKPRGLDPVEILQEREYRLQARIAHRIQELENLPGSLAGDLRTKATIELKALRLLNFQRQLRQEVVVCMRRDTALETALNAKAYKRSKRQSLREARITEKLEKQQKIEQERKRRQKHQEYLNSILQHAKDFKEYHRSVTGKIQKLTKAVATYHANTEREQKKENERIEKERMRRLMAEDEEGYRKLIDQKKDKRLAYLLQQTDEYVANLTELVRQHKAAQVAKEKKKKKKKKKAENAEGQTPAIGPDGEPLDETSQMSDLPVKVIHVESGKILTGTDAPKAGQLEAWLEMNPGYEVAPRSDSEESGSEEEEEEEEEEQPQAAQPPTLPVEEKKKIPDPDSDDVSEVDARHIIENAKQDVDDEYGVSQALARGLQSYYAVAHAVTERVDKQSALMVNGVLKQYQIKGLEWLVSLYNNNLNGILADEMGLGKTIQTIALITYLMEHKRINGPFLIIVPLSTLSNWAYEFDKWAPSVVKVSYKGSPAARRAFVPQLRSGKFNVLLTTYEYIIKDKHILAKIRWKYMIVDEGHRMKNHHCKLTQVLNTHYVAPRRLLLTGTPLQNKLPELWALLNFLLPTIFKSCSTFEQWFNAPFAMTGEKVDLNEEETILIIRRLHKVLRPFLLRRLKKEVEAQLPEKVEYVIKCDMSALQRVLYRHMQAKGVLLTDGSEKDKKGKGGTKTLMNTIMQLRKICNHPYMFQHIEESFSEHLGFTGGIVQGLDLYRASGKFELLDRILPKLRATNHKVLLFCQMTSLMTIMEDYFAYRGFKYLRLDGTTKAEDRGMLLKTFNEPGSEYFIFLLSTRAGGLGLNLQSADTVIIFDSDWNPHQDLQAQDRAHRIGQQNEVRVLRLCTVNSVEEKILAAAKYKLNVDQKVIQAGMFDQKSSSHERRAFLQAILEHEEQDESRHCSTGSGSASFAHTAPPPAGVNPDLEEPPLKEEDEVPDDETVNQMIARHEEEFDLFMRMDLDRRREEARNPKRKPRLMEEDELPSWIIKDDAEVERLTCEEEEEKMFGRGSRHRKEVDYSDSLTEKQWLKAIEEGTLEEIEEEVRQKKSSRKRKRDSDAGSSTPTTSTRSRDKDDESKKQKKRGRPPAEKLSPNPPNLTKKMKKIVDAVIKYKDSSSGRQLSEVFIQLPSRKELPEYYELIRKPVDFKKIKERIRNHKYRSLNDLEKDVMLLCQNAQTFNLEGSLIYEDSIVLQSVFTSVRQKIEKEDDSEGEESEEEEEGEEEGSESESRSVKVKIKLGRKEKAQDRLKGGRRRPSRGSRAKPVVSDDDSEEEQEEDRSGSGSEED
Protocol: Cells were seeded into 6-well plates (MV4-11: 4×10^6 cells/well/1 ml) and 1 ml of 2× compound solution was added into the well to make the final concentration and the plates were mixed well and incubated for 24 hours (No cytotoxicity was observed). The cell were collected with media and spun at 3000 rpm for 5 minutes. The supernatant was aspirated and the well and the cells were washed with cold PBS once and combined for centrifugation again; the supernatant aspirated again. 200 ul pre-chilled RIPAlysis buffer (Boston BioProducts BP-115D) with protease/phosphatase inhibitor (Roche 05892791001/Roche 04906837001) was directly added into the tube to lyze the cells for 20 minutes on ice. The cell lysate were collected into EP tubes and spun at 13000 rpm for 20 minutes and 72 ul supernatant was transferred to a fresh EP tube containing 18 ul of 5× loading buffer (Beyotime Bio P0015) to make the loading samples. The samples were heated to 100° C. for 10 minutes and cooled to RT and microcentrifuged. 20 ul of samples were loaded onto SDS-PAGE gel (Novex, WG1402BOX) and the gel was run at 80 V for 20 minutes and 120 V for 1.5 hours. The samples were electrotransfer to a NC membrane using wet-transfer method with 250 mA for 2.5 hours. The membrane was blocked with LICOR blocking buffer (LI-COR, 927-50000) for 1 hour. The membrane was washed three times with TBST (CST #9997S), 5 minutes each. Incubation was performed with primary antibody prepared in blocking buffer with 0.1% Tween-20 (Solarbio, P8220) at 4° C. overnight (Anti-SMARCA2/BRM antibody (ab15597) 1:500; Anti-BRG1 antibody [EPR3912] (ab108318) 1:1000; Rabbit anti-Baf180 antibody [EPR15860] (Abcam, ab196022) 1:1000; mouse anti-beta-Actin (8H10D10) (CST #3700) 1:10000). The membrane was washed three times with TBST, 5 minutes each. Incubation with secondary antibody was performed for 1 hour at RT (anti-rabbit IgG (Licor, 926-32211) 1:5000; anti-mouse IgG (LI-COR, 926-68070) 1:5000). The membrane was washed three times with TBST, 5 minutes each and lastly the LiCOR was read.
The letter codes for the percentage of SMARCA degradation after 24 hours (Dmax %) include: A (>90% degradation), B (>70-90% degradation), C (50-70% degradation), and D (<50% degradation).

Sequence of SMARCA2 (P51531 whole entry): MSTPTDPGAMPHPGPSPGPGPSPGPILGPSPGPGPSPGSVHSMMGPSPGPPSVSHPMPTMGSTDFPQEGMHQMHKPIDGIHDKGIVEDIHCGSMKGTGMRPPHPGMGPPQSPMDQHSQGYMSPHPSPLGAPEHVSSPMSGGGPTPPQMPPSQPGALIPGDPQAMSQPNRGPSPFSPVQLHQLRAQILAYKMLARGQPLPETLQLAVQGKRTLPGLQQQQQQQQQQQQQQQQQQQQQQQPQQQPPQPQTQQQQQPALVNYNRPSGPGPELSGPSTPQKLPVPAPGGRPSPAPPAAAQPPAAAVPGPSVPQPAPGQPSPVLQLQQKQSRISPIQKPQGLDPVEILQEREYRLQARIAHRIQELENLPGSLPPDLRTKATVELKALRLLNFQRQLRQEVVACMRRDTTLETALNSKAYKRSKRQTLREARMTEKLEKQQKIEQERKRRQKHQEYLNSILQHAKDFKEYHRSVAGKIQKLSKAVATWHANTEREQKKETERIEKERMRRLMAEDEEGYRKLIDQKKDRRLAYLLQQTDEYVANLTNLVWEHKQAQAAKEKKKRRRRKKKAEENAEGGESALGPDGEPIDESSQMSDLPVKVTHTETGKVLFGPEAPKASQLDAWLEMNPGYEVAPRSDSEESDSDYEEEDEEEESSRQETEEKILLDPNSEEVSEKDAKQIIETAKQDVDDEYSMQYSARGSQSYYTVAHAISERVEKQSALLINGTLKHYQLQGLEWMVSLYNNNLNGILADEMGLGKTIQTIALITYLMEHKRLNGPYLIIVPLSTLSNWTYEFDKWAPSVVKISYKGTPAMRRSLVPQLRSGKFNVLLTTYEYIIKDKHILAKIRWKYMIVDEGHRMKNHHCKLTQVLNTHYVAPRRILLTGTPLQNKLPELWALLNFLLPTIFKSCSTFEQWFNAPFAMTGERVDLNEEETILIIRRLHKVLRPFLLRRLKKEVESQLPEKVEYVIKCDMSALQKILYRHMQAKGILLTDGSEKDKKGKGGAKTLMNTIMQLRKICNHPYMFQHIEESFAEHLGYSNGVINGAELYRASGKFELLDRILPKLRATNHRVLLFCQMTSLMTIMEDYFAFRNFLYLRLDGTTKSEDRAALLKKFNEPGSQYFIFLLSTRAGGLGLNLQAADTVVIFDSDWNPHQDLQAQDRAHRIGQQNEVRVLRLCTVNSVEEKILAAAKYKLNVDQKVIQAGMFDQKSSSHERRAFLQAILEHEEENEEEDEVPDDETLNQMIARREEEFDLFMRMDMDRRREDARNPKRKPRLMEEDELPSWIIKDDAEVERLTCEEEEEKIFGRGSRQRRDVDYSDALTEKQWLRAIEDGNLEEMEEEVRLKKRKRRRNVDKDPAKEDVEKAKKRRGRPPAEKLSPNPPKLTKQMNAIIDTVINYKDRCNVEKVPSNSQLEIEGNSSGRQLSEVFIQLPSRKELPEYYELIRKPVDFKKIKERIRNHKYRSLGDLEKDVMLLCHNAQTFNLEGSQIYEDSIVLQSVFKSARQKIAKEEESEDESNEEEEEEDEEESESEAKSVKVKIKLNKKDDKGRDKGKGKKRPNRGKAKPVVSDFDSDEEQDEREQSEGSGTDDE

Compound | Dmax (SMARCA2) [%] | DC50 (SMARCA2) [nM] | Dmax (SMARCA4) [%] | DC50 (SMARCA4) [nM]
CN(Cc1cnc(N2C3CCC2CN(c2cc(-c4ccccc4O)nnc2N)C3)nc1)CC1CCN(c2ccc3c(c2)n(C)c(=O)n3C2CCC(=O)NC2=O)CC1 (stereo not drawn) [I-282, 3-(5-(4-((((2-(3-(3-amino-6-(2-hydroxyphenyl)pyridazin-4-yl)-3,8-diazabicyclo[3.2.1]octan-8-yl)pyrimidin-5-yl)methyl)(methyl)amino)methyl)piperidin-1-yl)-3-methyl-2-oxo-2,3-dihydro-1H-benzo[d]imidazol-1-yl)piperidine-2,6-dione] | > 90 | < 100 | > 90 | < 100
CN(CCCCCc1cnc(N2C3CCC2CN(c2cc(-c4ccccc4O)nnc2N)C3)nc1)Cc1ccc2c(c1)n(C)c(=O)n2C1CCC(=O)NC1=O (stereo not drawn) [I-283] | > 90 | < 100 | > 90 | < 100
Cn1c(=O)n(C2CCC(=O)NC2=O)c2ccc(CCC(=O)N3CCC(c4cnc(N5C6CCC5CN(c5cc(-c7ccccc7O)nnc5N)C6)nc4)CC3)cc21 (stereo not drawn) [I-286] | 70 to 90 | 100 to 500 | > 90 | < 100
Cn1c(=O)n(C2CCC(=O)NC2=O)c2ccc(CCCN3CCC(c4cnc(N5CCN(c6cc(-c7ccccc7O)nnc6N)CC5)nc4)CC3)cc21 (stereo not drawn) [I-288] | > 90 | < 100 | > 90 | < 100
Cn1c(=O)n(C2CCC(=O)NC2=O)c2ccc(CCCN3CCCC(c4cnc(N5C6CCC5CN(c5cc(-c7ccccc7O)nnc5N)C6)nc4)C3)cc21 (stereo not drawn) [I-289] | 70 to 90 | < 100 | 50 to 70 | < 100
Cn1c(=O)n(C2CCC(=O)NC2=O)c2cccc(CCCN3CCCC(c4cnc(N5C6CCC5CN(c5cc(-c7ccccc7O)nnc5N)C6)nc4)C3)c21 (stereo not drawn) [I-292] | > 90 | < 100 | > 90 | < 100
Cn1c(=O)n(C2CCC(=O)NC2=O)c2ccc(CCN3CCN(C(=O)c4cnc(N5C6CCC5CN(c5cc(-c7ccccc7O)nnc5N)C6)nc4)CC3)cc21 (stereo not drawn) [I-293, 3-(5-(2-(4-(2-(3-(3-amino-6-(2-hydroxyphenyl)pyridazin-4-yl)-3,8-diazabicyclo[3.2.1]octan-8-yl)pyrimidine-5-carbonyl)piperazin-1-yl)ethyl)-3-methyl-2-oxo-2,3-dihydro-1H-benzo[d]imidazol-1-yl)piperidine-2,6-dione] | > 90 | < 100 | > 90 | < 100
Cn1c(=O)n(C2CCC(=O)NC2=O)c2ccc(CC(=O)N3CCN(Cc4cnc(N5C6CCC5CN(c5cc(-c7ccccc7O)nnc5N)C6)nc4)CC3)cc21 (stereo not drawn) [I-294] | > 90 | < 100 | > 90 | < 100
Cn1c(=O)n(C2CCC(=O)NC2=O)c2ccc(C#CCCNC(=O)Cc3cnc(N4C5CCC4CN(c4cc(-c6ccccc6O)nnc4N)C5)nc3)cc21 (stereo not drawn) [I-295] | < 50 | > 1000 | < 50 | < 100
Cn1c(=O)n(C2CCC(=O)NC2=O)c2ccc(CCCCNC(=O)Cc3cnc(N4C5CCC4CN(c4cc(-c6ccccc6O)nnc4N)C5)nc3)cc21 (stereo not drawn) [I-296] | > 90 | < 100 | 70 to 90 | < 100
CN1C(=O)CCC(n2c(=O)n(C)c3cc(CCCN4CCC(c5cnc(N6C7CCC6CN(c6cc(-c8ccccc8O)nnc6N)C7)nc5)CC4)ccc32)C1=O (stereo not drawn) [I-297] | < 50 | > 1000 | < 50 | –
CN(CCCC#Cc1cnc(N2C3CCC2CN(c2cc(-c4ccccc4O)nnc2N)C3)nc1)Cc1ccc2c(c1)n(C)c(=O)n2C1CCC(=O)NC1=O (stereo not drawn) [I-298] | > 90 | < 100 | > 90 | < 100
CN(CCCc1cnc(N2C3CCC2CN(c2cc(-c4ccccc4O)nnc2N)C3)nc1)Cc1cccc2c1n(C)c(=O)n2C1CCC(=O)NC1=O (stereo not drawn) [I-299] | > 90 | < 100 | > 90 | < 100
Cn1c(=O)n(C2CCC(=O)NC2=O)c2cccc(C#CCN3CCCC(c4cnc(N5C6CCC5CN(c5cc(-c7ccccc7O)nnc5N)C6)nc4)C3)c21 (stereo not drawn) [I-300] | > 90 | < 100 | 70 to 90 | < 100
Cn1c(=O)n(C2CCC(=O)NC2=O)c2ccc(CCCCCCCCCNC(=O)c3cccc(C#Cc4cc(NC(=O)Nc5ccnc(Cl)c5)ccn4)c3)cc21 (stereo not drawn) [I-301, 3-[2-[4-[(2-chloro-4-pyridyl)carbamoylamino]-2-pyridyl]ethynyl]-N-[9-[1-(2,6-dioxo-3-piperidyl)-3-methyl-2-oxo-benzimidazol-5-yl]nonyl]benzamide] | < 50 | 100 to 500 | < 50 | 100 to 500
Cc1ncsc1-c1ccc(CNC(=O)[C@@H]2C[C@@H](O)CN2C(=O)[C@@H](NC(=O)CN2CCC(c3nccc(N4C5CCC4CN(c4cc(-c6ccccc6O)nnc4N)C5)n3)CC2)C(C)(C)C)cc1 [I-450] | < 50 | 100 to 500 | 50 to 70 | 100 to 500
Cc1ncsc1-c1ccc(CNC(=O)[C@@H]2C[C@@H](O)CN2C(=O)[C@@H](NC(=O)CN2CCC(c3cnc(N4CCN(c5cc(-c6ccccc6O)nnc5N)CC4)nc3)CC2)C(C)(C)C)cc1 [I-451] | > 90 | 100 to 500 | 70 to 90 | 100 to 500
Cc1ncsc1-c1ccc(CNC(=O)[C@@H]2C[C@@H](O)CN2C(=O)[C@@H](NC(=O)CN2CCCC(n3cc(-c4cc(-c5ccccc5O)nnc4N)cn3)C2)C(C)(C)C)cc1 (stereo partly drawn) [I-452] | < 50 | > 1000 | < 50 | 100 to 500
Cc1ncsc1-c1ccc(CNC(=O)[C@@H]2C[C@@H](O)CN2C(=O)[C@@H](NC(=O)CCCCCN2CCCC(n3cc(-c4cc(-c5ccccc5O)nnc4N)cn3)C2)C(C)(C)C)cc1 (stereo partly drawn) [I-456] | < 50 | > 1000 | < 50 | 100 to 500
Cc1ncsc1-c1ccc(CNC(=O)[C@@H]2C[C@@H](O)CN2C(=O)[C@@H](NC(=O)CN2CCC(n3cc(-c4cc(-c5ccccc5O)nnc4N)cn3)CC2)C(C)(C)C)cc1 [I-457] | 70 to 90 | 501 to 1000 | 70 to 90 | 100 to 500
Cc1ncsc1-c1ccc(CNC(=O)[C@@H]2C[C@@H](O)CN2C(=O)[C@@H](NC(=O)CCCN2CCC(n3cc(-c4cc(-c5ccccc5O)nnc4N)cn3)CC2)C(C)(C)C)cc1 [I-459] | < 50 | 100 to 500 | < 50 | 100 to 500
Cc1ncsc1-c1ccc(CNC(=O)[C@@H]2C[C@@H](O)CN2C(=O)[C@@H](NC(=O)CCCCN2CCC(n3cc(-c4cc(-c5ccccc5O)nnc4N)cn3)CC2)C(C)(C)C)cc1 [I-460] | < 50 | 100 to 500 | < 50 | 100 to 500
Cc1ncsc1-c1ccc(CNC(=O)[C@@H]2C[C@@H](O)CN2C(=O)[C@@H](NC(=O)CCCCCN2CCC(n3cc(-c4cc(-c5ccccc5O)nnc4N)cn3)CC2)C(C)(C)C)cc1 [I-461] | 50 to 70 | 501 to 1000 | 50 to 70 | 100 to 500
Cc1ncsc1-c1ccc(CNC(=O)[C@@H]2C[C@@H](O)CN2C(=O)[C@@H](NC(=O)CN2CCC(Cn3cc(-c4cc(-c5ccccc5O)nnc4N)cn3)CC2)C(C)(C)C)cc1 [I-465] | < 50 | > 1000 | < 50 | 100 to 500
Cc1ncsc1-c1ccc(CNC(=O)[C@@H]2C[C@@H](O)CN2C(=O)[C@@H](NC(=O)CCCN2CCC(Cn3cc(-c4cc(-c5ccccc5O)nnc4N)cn3)CC2)C(C)(C)C)cc1 [I-467] | < 50 | 100 to 500 | < 50 | 100 to 500
